Patent US20170354148A1, “SAFENED HERBICIDAL COMPOSITIONS CONTAINING HALAUXIFEN AND METHODS OF USE THEREOF IN BRASSICA SPECIES” (Dow AgroSciences LLC, priority 2016, published 2017)
Several values for one entry are separate records, joined by “and”; a condition that tells them apart may be missing. Equal entries are not always repeated.

Tested on: Spring Argentine canola (Brassica napus, BRSNS)
Test: Example 3 field trials (Canada), postemergence crop safety, visual phytotoxicity
[1] = BRSNS, trial 1, 17DAA1, 150 g ae/ha
[2] = BRSNS, trial 1, 32DAA1, 150 g ae/ha

O=C(O)c1nc(Cl)ccc1Cl [Clopyralid-olamine, 2-hydroxyethanaminium 3,6-dichloro-2-pyridinecarboxylate]
Mean % Visual Injury (BRSNS, 7DAAA, 150 g ae/ha (Tables 10, 11)): 0.0% | Mean % Visual Injury (BRSNS, 15DAAA, 150 g ae/ha (Tables 10, 11)): 1.5% | Mean % Visual Injury (BRSNS, 27DAAA, 150 g ae/ha (Tables 10, 11)): 1.0% | Mean % Visual Injury (BRSNS, 57DAAA, 150 g ae/ha (Tables 10, 11)): 2.0% | Mean % Visual Deformation (BRSNS, 60DAA1, 150 g ae/ha): 0.0% | Mean % Visual Injury (BRSNS, trial 1, 7DAA1, 150 g ae/ha): 1.0% | Mean % Visual Epinasty [1]: 1.0% | Mean % Visual Injury [1]: 1.3% | Mean % Visual Epinasty [2]: 3.5% | Mean % Visual Injury [2]: 7.0% | Mean % Visual Injury (BRSNS, trial 1, 49DAA1, 150 g ae/ha): 2.8% | Mean % Visual Injury (BRSNS, trial 2, 8DAA1, 150 g ae/ha): 1.8% and 2.0% and 1.3% and 1.4% and 1.5% and 1.0% | Mean % Visual Injury (BRSNS, trial 2, 17DAA1, 150 g ae/ha): 2.5% | Mean % Visual Epinasty (BRSNS, trial 2, 35DAA1, 150 g ae/ha): 3.5% and 2.0% | Mean % Visual Injury (BRSNS, trial 2, 48DAA1, 150 g ae/ha): 2.0% and 0.8% | Mean % Visual Epinasty (BRSNS, trial 3, 6DAA1, 150 g ae/ha): 0.0% | Mean % Visual Epinasty (BRSNS, trial 3, 23DAA1, 150 g ae/ha): 0.0% | Mean % Visual Injury (BRSNS, trial 3, 33DAA1, 150 g ae/ha): 0.5% and 1.0% | Mean % Visual Injury (BRSNS, trial 3, 69DAA1, 150 g ae/ha): 0.0% | Mean % Visual Injury (BRSNS, trial 4, 8DAA1, 150 g ae/ha): 1.5% | Mean % Visual Injury (BRSNS, trial 4, 15DAA1, 150 g ae/ha): 1.5% | Mean % Visual Epinasty (BRSNS, trial 4, 17DAA1, 200 g ae/ha): 0.0% | Mean % Visual Injury (BRSNS, trial 4, 41DAA1, 150 g ae/ha): 0.8% | Mean % Visual Injury (BRSNS, trial 4, 82DAA1, 150 g ae/ha): 0.0% | Mean % Visual Injury (BRSNS, trial 5, 7DAA1, 150 g ae/ha): 0.5% and 0.0% and 1.3% and 1.5% | Mean % Visual Injury (BRSNS, trial 5, 15DAA1, 150 g ae/ha): 0.0% and 0.5% | Mean % Visual Injury (BRSNS, trial 5, 36DAA1, 150 g ae/ha): 0.5% | Mean % Visual Injury (BRSNS, trial 5, 79DAA1, 150 g ae/ha): 0.0% | Mean % Visual Injury (BRSNS, trial 6, 6DAA1, 150 g ae/ha): 0.0% | Mean % Visual Injury (BRSNS, trial 6, 23DAA1, 150 g ae/ha): 0.0% | Mean % Visual Injury (BRSNS, trial 6, 33DAA1, 150 g ae/ha): 2.0% | Mean % Visual Injury (BRSNS, trial 6, 59DAA1, 150 g ae/ha): 3.5% | Mean % Visual Injury (BRSNS, trial 7, 17DAA1, 100 g ae/ha): 0.0% | Mean % Visual Injury (BRSNS, trial 7, 17DAA1, 150 g ae/ha): 0.0% | Mean % Visual Injury (BRSNS, trial 7, 17DAA1, 200 g ae/ha): 0.0% | Mean % Visual Injury (BRSNS, trial 7, 27DAA1, 150 g ae/ha): 0.0% | Mean % Visual Injury (BRSNS, trial 7, 27DAA1, 200 g ae/ha): 3.0% | Mean % Visual Injury (BRSNS, trial 8, 7DAA1, 150 g ae/ha): 1.5% | Mean % Visual Injury (BRSNS, trial 8, 57DAA1, 150 g ae/ha): 2.3% | Mean % Visual Injury (BRSNS, trial 9, 27DAA1, 150 g ae/ha): 1.0% | Mean % Visual Injury (BRSNS, trial 9, 60DAA1, 150 g ae/ha): 0.0% | Mean % Visual Injury (Table 15, 7DAAA, halauxifen-methyl 5, clopyralid-olamine 150, quinclorac 101 g ae/ha, alone or mixed): 0.0% | Mean % Visual Injury (Table 15, 15DAAA, halauxifen-methyl 5, clopyralid-olamine 150, quinclorac 101 g ae/ha, alone or mixed): 1.5% | Mean % Visual Injury (Table 15, 27DAAA, halauxifen-methyl 5, clopyralid-olamine 150, quinclorac 101 g ae/ha, alone or mixed): 1.0% | Mean % Visual Injury (Table 15, 57DAAA, halauxifen-methyl 5, clopyralid-olamine 150, quinclorac 101 g ae/ha, alone or mixed): 2.0% | Mean % Visual Injury (Table 17, 7DAAA, halauxifen-methyl 5, clopyralid-olamine 150 g ae/ha alone, or both mixed with isoxadifen-ethyl 5 g ae/ha): 0.0% | Mean % Visual Injury (Table 17, 15DAAA, halauxifen-methyl 5, clopyralid-olamine 150 g ae/ha alone, or both mixed with isoxadifen-ethyl 5 g ae/ha): 1.5% | Mean % Visual Injury (Table 17, 27DAAA, halauxifen-methyl 5, clopyralid-olamine 150 g ae/ha alone, or both mixed with isoxadifen-ethyl 5 g ae/ha): 1.0% | Mean % Visual Injury (Table 17, 57DAAA, halauxifen-methyl 5, clopyralid-olamine 150 g ae/ha alone, or both mixed with isoxadifen-ethyl 5 g ae/ha): 2.0% | Mean % Visual Injury (Table 18, 8DAAA, halauxifen-methyl 5, clopyralid-olamine 150 g ae/ha, alone or mixed): 0.5% | Mean % Visual Injury (Table 18, 14DAAA, halauxifen-methyl 5, clopyralid-olamine 150 g ae/ha, alone or mixed): 0.5% | Mean % Visual Injury (Table 18, 40DAAA, halauxifen-methyl 5, clopyralid-olamine 150 g ae/ha, alone or mixed): 0.0% | Mean % Visual Injury (Table 18, 81DAAA, halauxifen-methyl 5, clopyralid-olamine 150 g ae/ha, alone or mixed): 0.0% | Mean % Visual Injury (Table 19, 8DAAA, halauxifen-methyl 5, clopyralid-olamine 150 g ae/ha alone, or both mixed with isoxadifen-ethyl 20 g ae/ha): 0.5% | Mean % Visual Injury (Table 19, 14DAAA, halauxifen-methyl 5, clopyralid-olamine 150 g ae/ha alone, or both mixed with isoxadifen-ethyl 20 g ae/ha): 0.5% | Mean % Visual Injury (Table 19, 40DAAA, halauxifen-methyl 5, clopyralid-olamine 150 g ae/ha alone, or both mixed with isoxadifen-ethyl 20 g ae/ha): 0.0% | Mean % Visual Injury (Table 19, 81DAAA, halauxifen-methyl 5, clopyralid-olamine 150 g ae/ha alone, or both mixed with isoxadifen-ethyl 20 g ae/ha): 0.0% | Mean % Visual Injury (Table 22, 8DAAA, halauxifen-methyl 5, clopyralid-olamine 150, quinclorac 101 g ae/ha, alone or mixed): 0.5% | Mean % Visual Injury (Table 22, 14DAAA, halauxifen-methyl 5, clopyralid-olamine 150, quinclorac 101 g ae/ha, alone or mixed): 0.5% | Mean % Visual Injury (Table 22, 40DAAA, halauxifen-methyl 5, clopyralid-olamine 150, quinclorac 101 g ae/ha, alone or mixed): 0.0% | Mean % Visual Injury (Table 22, 81DAAA, halauxifen-methyl 5, clopyralid-olamine 150, quinclorac 101 g ae/ha, alone or mixed): 0.0% | Mean % Visual Injury (Table 23, 7DAAA, halauxifen-methyl 5, clopyralid-olamine 150 g ae/ha, alone or mixed): 2.0% | Mean % Visual Injury (Table 23, 17DAAA, halauxifen-methyl 5, clopyralid-olamine 150 g ae/ha, alone or mixed): 1.0%
